Experimental data taken from patent US20260015376A1, “CONTINUOUS FLOW METHODS FOR PRODUCING MANNOSE-1-PHOSPHATE, POLYMORPHS OF MANNOSE-1-PHOSPHATE, AND COMPOSITIONS AND USES RELATED THERETO” (Glycomine, Inc., priority 2022, published 2026).
“Also recorded” adds a separate entry of the source.

What was measured:
Type in all cases: physicochemical
[1] = Compression study (hydraulic press, XRPD)
Method: About 10 mg of […] Form C was compressed for 5 minutes under 5 MPa or 10 MPa with a hydraulic press. Potential form change and degree of crystallinity were evaluated by XRPD.

[2] = Water activity experiments to determine relative stability of Forms A, B and C in water/EtOH systems (XRPD)
Method: […]. Water activity experiments were conducted at 25° C. in several different water/EtOH systems to determine relative stability of M1P Forms A, B and C under these conditions.
About 5 mg each of M1P Forms A, B, and C were combined and added to 0.2 mL saturated solutions of a water/EtOH system. The resulting suspensions were stirred at 5° C., 25° C., or 50° C. for 4 days or 11 days. After 4 or 11 days, the solids (wet cakes) were isolated by centrifugation filtration and analyzed by XRPD to determine which Form(s) remained.

[3] = 12-month stability, polymorph characterization by XRPD and purity by chromatography; conditions: −20° C., 25° C./60% RH, 40° C./75% RH, 5° C.
Method: […] Form C was produced in accordance with the examples above. XRPD was used on samples taken at 1, 3, 6, 9 and 12 months, and tested under four conditions: • -20° C.±5° C., • 25° C.±2° C. at 60% relative humidity (RH)±5% RH, • 40° C.±2° C. at 75% RH±5% RH and • 5° C.±3° C.

[4] = Wet granulation simulation (XRPD); conditions: ethanol as the granulation solvent, dried 10 min at ambient conditions
Method: Ethanol was added dropwise to about 10 mg of M1P Form C until the sample was wetted sufficiently. The wet sample was ground gently in a mortar and a pestle. Post granulation, the sample was dried under ambient conditions for 10 min. Potential form change and degree of crystallinity were evaluated by XRPD.

[5] = Water sorption by dynamic vapor sorption (DVS) at 25° C.
Method: Water sorption behavior of […] Form C was investigated using dynamic vapor sorption (DVS) at 25° C. The relative humidity (RH) was increased from 0-80%, with a minimum equilibration time of 60 min and a maximum equilibration time of 360 min.

[6] = Dry grinding study (XRPD); conditions: ground manually with mortar and pestle for 3 min
Method: About 10 mg of […] Form C was ground manually with a mortar and a pestle for 3 min. Potential form change and degree of crystallinity were evaluated by XRPD.

O=P([O-])([O-])O[C@H]1O[C@H](CO)[C@@H](O)[C@H](O)[C@@H]1O.[K+].[K+] [Form C]
form change by XRPD ([1]; compressed for 5 minutes under 5 MPa): no form change was observed | degree of crystallinity by XRPD ([1]; compressed for 5 minutes under 5 MPa and 10 MPa): crystallinity decreased | form change by XRPD ([1]; compressed for 5 minutes under 10 MPa): no form change was observed | stability over water activity range [2]: stable over a wide water activity range | changes to the polymorphic form by XRPD ([3]; 1, 3, 6, 9 and 12 months): no observed changes to the polymorphic form | changes in purity by chromatography ([3]; 12-month stability): no substantial changes observed | form change by XRPD [4]: no form change | form change by XRPD following the DVS experiment ([5]; 80% RH at 25° C.): no form change was observed | H2O absorbed ([5]; DVS, 25° C., 80% RH): 1.9 % (w/w) | hygroscopicity ([5]; DVS, 25° C., RH 0-80%): only slightly hygroscopic; also recorded: low hygroscopicity | % Water absorption ([5]; DVS, 25° C., relative humidity 0%): 0.01% | % Water absorption ([5]; DVS, 25° C., relative humidity 10%): 0.51% | % Water absorption ([5]; DVS, 25° C., relative humidity 20%): 0.59% | % Water absorption ([5]; DVS, 25° C., relative humidity 30%): 0.63% | % Water absorption ([5]; DVS, 25° C., relative humidity 40%): 0.65% | % Water absorption ([5]; DVS, 25° C., relative humidity 50%): 0.69% | % Water absorption ([5]; DVS, 25° C., relative humidity 60%): 0.73% | % Water absorption ([5]; DVS, 25° C., relative humidity 70%): 0.82% | % Water absorption ([5]; DVS, 25° C., relative humidity 80%): 1.93% | degree of crystallinity by XRPD [6]: crystallinity decreased | form change by XRPD [6]: no form change
